Source: patent US9469615B2, “Quinoxalines and AZA-quinoxalines as CRTH2 receptor modulators” (Merck Sharp & Dohme Corp., priority 2010, dated 2016)

Molecular target: T1, hCRTH2 (Homo sapiens, UniProt Q9Y5Y4)
T1 construct: expressed in transfected cells; host or cells: HEK (human embryonic kidney) cells expressing hCRTH2; membrane preparation
T1 sequence (Q9Y5Y4 1-395): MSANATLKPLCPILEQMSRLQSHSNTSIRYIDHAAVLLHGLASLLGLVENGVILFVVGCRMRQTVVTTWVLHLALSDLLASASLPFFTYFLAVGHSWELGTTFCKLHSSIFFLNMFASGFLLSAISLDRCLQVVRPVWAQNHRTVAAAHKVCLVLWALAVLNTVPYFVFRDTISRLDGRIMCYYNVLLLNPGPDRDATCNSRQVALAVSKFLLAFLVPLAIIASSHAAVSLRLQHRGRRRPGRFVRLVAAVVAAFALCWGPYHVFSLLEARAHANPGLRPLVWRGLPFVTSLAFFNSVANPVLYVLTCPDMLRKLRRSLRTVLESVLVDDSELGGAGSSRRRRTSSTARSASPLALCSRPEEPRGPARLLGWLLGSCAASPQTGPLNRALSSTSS
Assay: Radioligand binding assay ([3H]PGD2 competition, HEK-hCRTH2 membranes)
Settings: [3H]PGD2 binding
Procedure: Biological Assays Radioligand Binding Assay.
Radioligand binding assays were performed at room temperature in 50 mM Tris-HCl pH 7.4, 1 mM EDTA containing 2 mM MnCl2 and 3.0 nM [^3H]PGD2 (New England Nuclear, Boston, Mass.) (171 Ci mmol^−1), in a final volume of 0.2 mL. Competing ligands were diluted in dimethylsulfoxide (Me2SO) that was kept constant at 1% (v/v) of the final incubation volume. The reaction was initiated by the addition of 8-20 μg of membrane protein prepared from a human embryonic kidney (HEK)-hCRTH2 cell line. Total and non-specific binding were determined in the absence and the presence of 10 μM PGD2, respectively. […] The reaction was routinely conducted for 60 min at room temperature and terminated by rapid filtration through prewetted (0.3% polyethyleneimine) 96-well printed Filtermate™ (Wallac) using a Tomtec® harvester (Hamden, Conn.). After washing with cold buffer, the filter was dried for 2 minutes in microwave, and Meltilex Scintillator sheet (Wallac) was melted on for 2 min. The radioactivity was measured with Betaplate model 1205 (Wallac).

| Structure (SMILES) | Ki (rated A-E (Table A)) [nM] | Ki (values in text) [nM] |
| --- | --- | --- |
| O=C(O)CCCCc1nc2cc(C(=O)Nc3ccccc3F)ccc2nc1-c1ccc(F)cc1 [5P, 3-(4-fluorophenyl)-7-[[(2-fluorophenyl)amino]carbonyl]-2-quinoxalinepentanoic acid] | 201 to 700 | 266 |
| CN(C)C(=O)c1ccc2nc(-c3ccc(F)cc3)c(CCCCC(=O)O)nc2c1 [5Q, 7-[(dimethylamino)carbonyl]-3-(4-fluorophenyl)-2-quinoxalinepentanoic acid] | 20.1 to 200 |  |
| CC(C)NC(=O)c1ccc2nc(-c3ccc(F)cc3)c(CCCCC(=O)O)nc2c1 [5R, 3-(4-fluorophenyl)-7-[[(1-methylethyl)amino]carbonyl]-2-quinoxalinepentanoic acid] | 2.1 to 20 |  |
| O=C(O)CCCCc1nc2cc(C(=O)N3CCC3)ccc2nc1-c1ccc(F)cc1 [5S, 7-(1-azetidinylcarbonyl)-3-(4-fluorophenyl)-2-quinoxalinepentanoic acid] | 2.1 to 20 |  |
| O=C(O)CCCCc1nc2cc(C(=O)C3CC3)ccc2nc1-c1ccccc1 [6G, 7-(cyclopropylcarbonyl)-3-phenyl-2-quinoxalinepentanoic acid] | 0.1 to 2 | 0.5 |
| COC(=O)c1ccc2nc(-c3ccccc3)c(CCCCC(=O)O)nc2c1 [6H, 7-(methoxycarbonyl)-3-phenyl-2-quinoxalinepentanoic acid] | 2.1 to 20 |  |
| CC(C)C(=O)c1ccc2nc(-c3ccc(F)cc3)c(CCCCC(=O)O)nc2c1 [7C, 3-(4-fluorophenyl)-7-(2-methyl-1-oxopropyl)-2-quinoxalinepentanoic acid] | 0.1 to 2 |  |
| C[C@@H](NC(=O)c1ccc2nc(CCCCC(=O)O)c(-c3ccccc3)nc2c1)c1ccc(F)cc1 [8G] | 20.1 to 200 |  |
| O=C(O)CCCOc1nc2cc(C(=O)NCc3ccc(Cl)cc3)ccc2nc1-c1ccccc1 [10C, 4-({7-[(4-chlorobenzyl)carbamoyl]-3-phenylquinoxalin-2-yl}oxy)butanoic acid] | 0.1 to 2 |  |
| C[C@H](NC(=O)c1ccc2nc(-c3ccccc3)c(OCCCC(=O)O)nc2c1)c1ccccc1 [10D, 4-[(3-phenyl-7-{[(1S)-1-phenylethyl]carbamoyl}quinoxalin-2-yl)oxy] butanoic acid] | 2.1 to 20 |  |
| CN(Cc1ccccc1)C(=O)c1ccc2nc(-c3ccccc3)c(OCCCC(=O)O)nc2c1 [10E, 4-({7-[benzyl(methyl)carbamoyl]-3-phenylquinoxalin-2-yl}oxy)butanoic acid] | 0.1 to 2 |  |
| O=C(O)CCCOc1nc2cc(C(=O)N3CCc4ccccc4C3)ccc2nc1-c1ccccc1 [10F, 4-{[7-(3,4-dihydroiso-quinolin-2(1H)-ylcarbonyl)-3-phenylquinoxalin-2-yl]oxy} butanoic acid] | 2.1 to 20 |  |
| O=C(O)CCCCc1nc2cc(NC(=O)c3ccc(OC(F)(F)F)cc3)ccc2nc1-c1ccccc1 [11D] | 201 to 700 |  |
| O=C(O)CCCCc1nc2cc(NC(=O)c3ccc(Cl)cc3)ccc2nc1-c1ccccc1 [11E, 5-(7-{[(4-chlorophenyl)-carbonyl]amino}-3-phenyl-quinoxalin-2-yl)pentanoic acid] | 201 to 700 |  |
| O=C(O)CCCCc1nc2cc(NC(=O)Cc3ccc(C(F)(F)F)cc3)ccc2nc1-c1ccccc1 [11F, 5-[3-phenyl-7-({[4-(trifluoromethyl)phenyl]acetyl}amino)quinoxalin-2-yl]pentanoic acid] | 201 to 700 | 223 |
| C[C@H](NC(=O)c1cnc2nc(-c3ccccc3)c(CCCCC(=O)O)nc2c1)c1ccccc1 [14C, 5-(3-phenyl-7-{[(1S)-1-phenylethyl]carbamoyl}pyrido[2,3-b]pyrazin-2-yl)pentanoic acid] | 20.1 to 200 |  |
| O=C(O)CCCCc1nc2cc(C(=O)NCc3ccc(Cl)cc3)cnc2nc1-c1ccccc1 [14D, 5-{7-[(4-chlorobenzyl)-carbamoyl]-3-phenylpyrido[2,3-b]pyrazin-2-yl} pentanoic acid] | 2.1 to 20 |  |
| O=C(O)CCCCc1nc2cc(C(=O)NC3(c4ccccc4)CC3)cnc2nc1-c1ccccc1 [14E, 5-{3-phenyl-7-[(1-phenylcyclopropyl)carbamoyl]-pyrido[2,3-b]pyrazin-2-yl}pentanoic acid] | 20.1 to 200 |  |
| C[C@@H](NC(=O)c1cnc2nc(-c3ccccc3)c(CCCCC(=O)O)nc2c1)c1ccccc1 [14F, 5-(3-phenyl-7-{[(1R)-1-phenylethyl]carbamoyl}pyrido[2,3-b]pyrazin-2-yl)pentanoic acid] | 20.1 to 200 |  |
| O=C(O)CCCCc1nc2cc(C(=O)N3CCN(c4ccccc4)CC3)cnc2nc1-c1ccccc1 [14G, 5-{3-phenyl-7-[(4-phenylpiperazin-1-yl)carbonyl]pyrido [2,3-b]pyrazin-2-yl}pentanoic acid] | 0.1 to 2 |  |
| CC(NC(=O)c1cnc2nc(-c3ccccc3)c(CCCCC(=O)O)nc2c1)c1ccncc1 (centres unmarked) [14H, 5-{3-phenyl-7-[(1-pyridin-4-ylethyl)carbamoyl]pyrido[2,3-b]pyrazin-2-yl} pentanoic acid] | 20.1 to 200 |  |

Further lines, results first:

| Ki (rated A-E (Table A)) [nM] | Ki (values in text) [nM] | Structure (SMILES) |
| --- | --- | --- |
| 2.1 to 20 |  | C[C@@H](NC(=O)c1ccc2nc(-c3ccccc3)c(CCCCC(=O)O)nc2c1)c1ccccc1 [15A, 5-(3-phenyl-7-{[(1R)-1-phenylethyl]carbamoyl}quinoxalin-2-yl) pentanoic acid] |
| 20.1 to 200 |  | O=C(O)CCCCc1nc2cc(C(=O)Nc3ccccc3)ccc2nc1-c1ccccc1 [15AA, 5-[3-phenyl-7-(phenylcarbamoyl)quinoxalin-2-yl] pentanoic acid] |
| 0.1 to 2 |  | O=C(O)CCCCc1nc2cc(C(=O)NCc3ccccc3F)ccc2nc1-c1ccccc1 [15AB, 5-{7-[(2-fluorobenzyl)carbamoyl]-3-phenylquinoxalin-2-yl}pentanoic acid] |
| 0.1 to 2 |  | O=C(O)CCCCc1nc2cc(C(=O)NCc3cccc(F)c3)ccc2nc1-c1ccccc1 [15AC, 5-{7-[(3-fluorobenzyl)carbamoyl]-3-phenylquinoxalin-2-yl}pentanoic acid] |
| 2.1 to 20 |  | O=C(O)CCCCc1nc2cc(C(=O)NCc3ccc(F)cc3)ccc2nc1-c1ccccc1 [15AD, 5-{7-[(4-fluorobenzyl)carbamoyl]-3-phenylquinoxalin-2-yl}pentanoic acid] |
| 2.1 to 20 |  | O=C(O)CCCCc1nc2cc(C(=O)NC3(c4ccccc4)CC3)ccc2nc1-c1ccccc1 [15AE, 5-{3-phenyl-7-[(1-phenylcyclopropyl)carbamoyl]quinoxalin-2-yl}pentanoic acid] |
| 2.1 to 20 |  | O=C(O)CCCCc1nc2cc(C(=O)NCc3ccccn3)ccc2nc1-c1ccccc1 [15AF, 5-{3-phenyl-7-[(pyridin-2-ylmethyl)carbamoyl]quinoxalin-2-yl} pentanoic acid] |
| 2.1 to 20 |  | O=C(O)CCCCc1nc2cc(C(=O)NCc3cccnc3)ccc2nc1-c1ccccc1 [15AG, 5-{3-phenyl-7-[(pyridin-3-ylmethyl)carbamoyl]quinoxalin-2-yl} pentanoic acid] |
| 20.1 to 200 |  | O=C(O)CCCCc1nc2cc(C(=O)NCc3ccncc3)ccc2nc1-c1ccccc1 [15AH, 5-{3-phenyl-7-[(pyridin-4-ylmethyl)carbamoyl]quinoxalin-2-yl} pentanoic acid] |
| 2.1 to 20 |  | O=C(O)CCCCc1nc2cc(C(=O)N3CCCCC3c3ccccc3)ccc2nc1-c1ccccc1 (centres unmarked) [15AJ, 5-{3-phenyl-7-[(2-phenylpiperidin-1-yl)carbonyl]quinoxalin-2-yl}pentanoic acid] |
| 2.1 to 20 |  | O=C(O)CCCCc1nc2cc(C(=O)N3CCC(c4ccccc4)C3)ccc2nc1-c1ccccc1 (centres unmarked) [15AK, 5-{3-phenyl-7-[(3-phenylpyrrolidin-1-yl)carbonyl]quinoxalin-2-yl}pentanoic acid] |
